Legend:
[1] = biological target: T1, Geranylgeranyl transferase (Bos taurus, UniProt P29702+Q5EAD5); assay: Geranylgeranyl transferase inhibiting activity (geranylgeranyl pyrophosphate, Ras-CVIL substrate); format: biochemical; details: geranylgeranyl transferase purified from bovine brain, read-out: GGtase IC50
T1 construct: Geranylgeranyl transferase was purified from bovine brain; from tissue; host or cells: bovine brain
Summary of the method: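 Bovine-brain-purified enzyme run as in the farnesyl transferase assay, with geranylgeranyl pyrophosphate and Ras-CVIL substrate protein under similar reaction conditions.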

[2] = test system: intracellular Ras farnesyl transferase, Rat2 cell line; assay: Intracellular Ras farnesyl transferase inhibiting activity in transformed Rat2 cells (35S-methionine labelling, Y13-259 immunoprecipitation, SDS-PAGE); format: cell-based; details: Rattus norvegicus; transformed Rat2 fibroblast cell line; concentration inhibiting 50% of farnesyl binding of Ras protein; read-out: Ftase CIC50
Summary of the method: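 Rat2 fibroblasts transformed with H-Ras, or with H-Ras carrying the K-Ras polybasic lysine C-terminus, were treated with compound (1% DMSO). After 4 h they were labelled for 20 h with 150 μCi/ml 35S-methionine. Lysates were immunoprecipitated with Y13-259, run on 13.5% SDS-PAGE and autoradiographed; CIC50 is the concentration halving farnesylated versus unfarnesylated Ras band intensity.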

Ras farnesyl transferase = biological target: T2, Ras farnesyl transferase (Homo sapiens, UniProt P49354+P49356); assay: Ras farnesyl transferase inhibiting activity (filter-binding, tritium-farnesylpyrophosphate, Ras-CVLS substrate); format: biochemical; details: recombinant Ras farnesyl transferase, 30 minutes at 37° C., read-out: Ftase IC50
T2 construct: made in house

For `COC(=O)[C@H](CCSC)NC(=O)CC1C(=O)N(Cc2cncn2Cc2ccc(C#N)cc2)C(=O)N1Cc1cccc2ccccc12` (stereo partly drawn) [Compound 85, (2S)-(2-{1-[3-(4-cyano-benzyl)-3H-imidazol-4-ylmethyl]-3-naphthalen-1-ylmethyl-2,5-dioxo-imidazolidin-4-yl}-acetamino)-4-methylsulfanyl-butyric acid methyl ester], the IC50 [1] was over 10 µM, the IC50 [2] was under 50 µM and the IC50 (Ras farnesyl transferase) was 0.2 µM.
`CSCC[C@H](NC(=O)CC1C(=O)N(Cc2cncn2Cc2ccc(C#N)cc2)C(=O)N1Cc1cccc2ccccc12)C(=O)O` (stereo partly drawn) [Compound 86, (2S)-(2-{1-[3-(4-cyano-benzyl)-3H-imidazol-ylmethyl]-3-naphthalen-1-ylmethyl-2,5-dioxo-imidazolidin-4-yl}-acetamino)4-methylsulfanyl-butyric acid] was tested, and the IC50 [1] was over 10 µM, the IC50 [2] was under 10 µM and the IC50 (Ras farnesyl transferase) was 0.05 µM.
`O=C1CN(c2cccc3ccccc23)C(=O)N1CCCn1ccnc1` [Compound 87, 3-(3-imidazol-1-yl-propyl)-1-naphthalen-1-yl-imidazolidin-2,4-dione] was tested, and the IC50 [1] was over 10 µM, the IC50 [2] was over 50 µM and the IC50 (Ras farnesyl transferase) was 5 µM.
